Measured values taken from PubChem BioAssay (NCI).
Where “and” joins values, the source holds several entries; their conditions need not be identical. Identical values can stand only once.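 A five-concentration, 48-hour dose response in 96-well plates underlies each endpoint, interpolated linearly between surrounding concentrations. Abbreviation: GI50, concentration required for 50% inhibition of growth. TGI: total growth inhibition.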

Columns and labels:
Assay in all cases: NCI-60 cell line screen, 48 h
[1] = test system: A498 renal
[2] = test system: A549 NSCLC
[3] = test system: HCT-116 colon
[4] = test system: IGROV1 ovarian
[5] = test system: KM12 colon
[6] = test system: NCI-H23 lung
[7] = test system: SF-295 CNS
[8] = test system: SW-620 colon
[9] = test system: UO-31 renal
[10] = test system: PC-3 prostate

Compound	TGI [1]	TGI [2] [µM]	TGI [3] [µM]	TGI [4]	TGI [5]	TGI [6]	TGI [7]	TGI [8] [µM]	TGI [9]	TGI [10]	GI50 [10] [µM]	GI50 [1] [µM]	GI50 [2] [µM]	GI50 [3] [µM]	GI50 [4] [µM]	GI50 [5] [µM]	GI50 [7] [µM]	GI50 [8] [µM]	GI50 [9] [µM]	GI50 [6] [µM]
O=C(O)c1cc2ccc(Cl)cc2c(O)c1C1=CCCCC1	79.1 µM	> 100	> 100	> 100 µM	> 100 µM	95.9 µM	> 100 µM	> 100	> 100 µM	–	–	–	–	–	–	–	–	–	–	–
COc1cc([N+](=O)[O-])c(S(=O)(=O)O)cc1-[n+]1nc(C(=O)Nc2ccccc2)nn1-c1ccc([N+](=O)[O-])c(S(=O)(=O)[O-])c1	–	> 100	> 100	> 100 µM	> 100 µM	> 100 µM	> 100 µM	> 100	> 100 µM	> 100 µM	–	–	–	–	–	–	–	–	–	–
O=C(CC/C(CC(=O)c1ccc(Cl)cc1)=N\O)Nc1cccc(Cl)c1	> 100 µM	> 100	–	> 100 µM	> 100 µM	> 100 µM	> 100 µM	> 100	> 100 µM	–	–	–	–	–	–	–	–	–	–	–
CN(C)CC(=O)N1CCc2c([nH]c3ccccc23)C1c1cccnc1 (stereo unspecified)	> 100 µM	> 100	> 100	> 100 µM	> 100 µM	> 100 µM	–	> 100	> 100 µM	> 100 µM	93	–	–	–	–	–	–	–	–	–
NC(=O)C1C(=O)Oc2cccnc21 (stereo unspecified)	–	> 100	> 100	> 100 µM	> 100 µM	> 100 µM	> 100 µM	> 100	> 100 µM	–	–	–	–	–	–	–	–	–	–	–
C=C(/C=C/C=C(\CO)CCC=C(C)C)[C@H]1CCC2([C@H](CCCO)/C(=C(/C)C=O)CC[C@]2(C)O)[C@H]1O (stereo partly specified)	> 100 µM	> 100	> 100	> 100 µM	> 100 µM	> 100 µM	> 100 µM	> 100	–	–	–	–	–	–	–	–	–	–	–	–
CCOC(=O)C(=O)Nc1nc2ccc(OC)cc2s1	> 100 µM	> 100	–	> 100 µM	> 100 µM	> 100 µM	> 100 µM	> 100	> 100 µM	–	–	–	–	–	–	–	–	–	–	–
CNC(=O)N(CCCCC(NC(C)=O)C(=O)NCc1ccccc1)Cc1ccccc1 (stereo unspecified)	> 100 µM	> 100	> 100	> 100 µM	> 100 µM	> 100 µM	> 100 µM	> 100	> 100 µM	–	–	–	–	–	–	–	–	–	–	–
CC1(C)N=C(N)N=C(N)N1c1ccc(CCCCCCc2ccc(S(=O)(=O)F)cc2)cc1	–	2.76	15.3	30.8 µM	–	12.6 µM	22 µM	4.44	29.5 µM	15.4 µM	–	–	–	–	–	–	–	–	–	–
COc1ccc(S(=O)(=O)NNS(C)(=O)=O)cc1OC	> 100 µM	> 100	–	> 100 µM	> 100 µM	> 100 µM	> 100 µM	> 100	> 100 µM	–	–	–	–	–	–	–	–	–	–	–
COc1cc2c(cc1OC)C(Sc1ccc(Cl)cc1)c1c(nc(N)c(C#N)c1N)O2 (stereo unspecified)	5.01 µM	3.36	3.46	2.88 µM	3.35 µM	–	3.31 µM	3.14	2.46 µM	3.07 µM	1.56	1.73	1.75	1.96	1.07	1.75	1.83	1.37	1.21	–
O=C(/C=N/O)Nc1cccc(Cl)c1I	> 100 µM	> 100	> 100	> 100 µM	> 100 µM	> 100 µM	> 100 µM	> 100	78.3 µM	–	–	–	–	–	–	–	–	–	–	–
O=C(Nc1c(Cl)cc([N+](=O)[O-])cc1Cl)C(=O)C(C(=O)c1ccncc1)C1OC(=O)c2ccccc21 (stereo unspecified)	> 100 µM	> 100	> 100	> 100 µM	> 100 µM	> 100 µM	> 100 µM	> 100	> 100 µM	–	–	–	–	–	–	–	–	–	–	–
Nc1cccc(C(=O)/C=C/c2ccccc2O)c1	> 100 µM	> 100	> 100	> 100 µM	> 100 µM	> 100 µM	> 100 µM	29.6	> 100 µM	–	–	–	–	–	–	–	–	–	–	–
Cc1cc(N(CCC#N)CCC#N)ccc1/C=C1N=C(/C=C\c2ccccc2)N(c2ccc(C(=O)O)cc2)C\1=O	> 100 µM	> 100	> 100	> 100 µM	> 100 µM	> 100 µM	> 100 µM	> 100	> 100 µM	–	–	–	–	–	–	–	–	–	–	–
COc1ccc(C2C(C(=O)O)=C(COC(C)=O)Oc3cc4c(cc32)OCO4)c(OC)c1 (stereo unspecified)	–	> 100	> 100	> 100 µM	–	> 100 µM	> 100 µM	> 100	> 100 µM	–	–	–	–	–	–	–	–	–	–	–
CN(C)CN(C)c1nc(N(C)C)nc(N(C)C)n1	> 100 µM	> 100	> 100	> 100 µM	> 100 µM	> 100 µM	> 100 µM	> 100	> 100 µM	–	–	–	–	–	–	–	–	–	–	–
COc1ccc2cc1Oc1ccc(cc1)CC1c3c(cc(OC)c4c3Oc3cc5c(cc3O4)CCNC5C2)CCN1C (stereo unspecified)	3.7 µM and 3.02 µM	4.07	3.32	3.41 µM and 2.82 µM	3.33 µM and 2.85 µM	4.54 µM and 3.22 µM	3.42 µM and 3.23 µM	–	30.7 µM and 3.13 µM	3.72 µM and 3.23 µM	–	1.64	–	1.84	1.47	1.46	1.8	–	1.67	1.53
Cc1c(C(=O)/C=C/c2ccc3c(c2)OCO3)[n+](=O)c2ccccc2n1[O-]	64 µM	> 100	75.1	> 100 µM	90.5 µM	42.4 µM	95.7 µM	> 100	97.4 µM	–	–	–	–	–	–	–	–	–	–	–
O=S1(=O)CS(=O)(=O)OCCCCCO1	> 100 µM	> 100	> 100	> 100 µM	> 100 µM	> 100 µM	–	> 100	> 100 µM	–	–	–	–	–	–	–	–	–	–	–
c1ccc2c(c1)n1nnnc1c1nnnn21	> 100 µM	> 100	> 100	> 100 µM	> 100 µM	> 100 µM	> 100 µM	> 100	> 100 µM	–	–	–	–	–	–	–	–	–	–	–

Compound	TGI [1]	TGI [2] [µM]	TGI [3] [µM]	TGI [4]	TGI [5]	TGI [6]	TGI [7]	TGI [8] [µM]	TGI [9]	TGI [10]	GI50 [10] [µM]	GI50 [1] [µM]	GI50 [2] [µM]	GI50 [3] [µM]	GI50 [4] [µM]	GI50 [5] [µM]	GI50 [7] [µM]	GI50 [8] [µM]	GI50 [9] [µM]	GI50 [6] [µM]
OCCN1CCCN(CCCN2c3ccccc3Sc3ccc(C(F)(F)F)cc32)CC1	5.63 µM	15.6	4.49	7.22 µM	4.69 µM	–	3.74 µM	4.15	10.6 µM	–	–	1.69	4.69	2.1	2.68	2.27	1.76	1.86	2.3	–
COc1cc2c(c(OC)c1OC)-c1ccc(SC)c(=O)cc1C(CC(=O)Oc1ccccc1F)C2 (stereo unspecified)	6.77 µM	> 7.5	0.0644	> 7.5 µM	0.0493 µM	0.0894 µM	> 7.5 µM	> 7.5	> 7.5 µM	–	–	–	–	–	–	–	–	–	–	–
C=C(c1ccc(C(=O)NCCCn2ccnc2)cc1)c1cc2c(cc1C)C(C)(C)CCC2(C)C	> 100 µM	16.4	1.79	> 32 µM	> 50.6 µM	66.5 µM	18.7 µM	–	17.7 µM	> 51.7 µM	0.158	25.2	1.14	0.0398	1.92	0.37	1.31	–	3.93	3.69
COc1ccc(/C(C#N)=C2/O/C(=N/N)C(c3ccc(OC)c(OC)c3)C2=O)cc1OC (stereo unspecified)	–	> 100	> 100	> 100 µM	> 100 µM	> 100 µM	> 100 µM	> 100	> 100 µM	–	–	–	–	–	–	–	–	–	–	–
Cc1ncc([N+](=O)[O-])n1CCOc1ccc(C(=O)/C=C/c2ccc(C(F)(F)F)cc2)cc1	20.2 µM	8.5	3.34	4.13 µM	4.22 µM	–	13.8 µM	4.03	2.87 µM	12.2 µM	2.25	6.57	2.42	1.65	2	2.01	3.47	1.76	1.48	–
O=C(N[C@H]1CC2(C=C(I)C(=O)C(I)=C2)OC1=O)OCc1ccccc1	> 100 µM	> 100	29.6	–	29.5 µM	32.6 µM	37.3 µM	–	32.1 µM	–	–	–	–	–	–	–	–	–	–	–
O=C(Cc1csc2nc(-c3ccc(Br)cc3)cn12)N/N=C/c1ccccc1O	–	24.2	12.4	11.5 µM	16.8 µM	14 µM	9.34 µM	17.2	> 100 µM	16.7 µM	4.28	–	6.22	3.21	1.04	3.62	2.73	3.98	7.16	3.43
Cc1cccc(NC(=O)CSc2nnc(-c3ccc(N=Cc4ccc(Cl)cc4)cc3)o2)c1	–	> 100	> 100	–	> 100 µM	> 100 µM	> 100 µM	> 100	> 100 µM	–	–	–	–	–	–	–	–	–	–	–
CCOc1ccccc1NC(=O)C1=C(C)NC(C)=C(C(=O)Nc2ccccc2OCC)C1c1ccc2c(c1)OCO2	84 µM	> 100	–	> 100 µM	50.7 µM	> 100 µM	74.6 µM	> 100	> 100 µM	–	–	–	–	–	–	–	–	–	–	–
CC1(C)O[C@@H](CCl)C[C@@H](C#N)O1	> 100 µM	> 100	> 100	> 100 µM	> 100 µM	> 100 µM	> 100 µM	> 100	> 100 µM	–	–	–	–	–	–	–	–	–	–	–
CC(=O)Nc1ccc2c(c1)[nH]c(=O)c1cc(Cl)ccc12	> 100 µM	> 100	> 100	> 100 µM	> 100 µM	> 100 µM	> 100 µM	> 100	> 100 µM	–	–	–	–	–	–	–	–	–	–	–
Cc1cc2nc3c(C(OC4OC(CO)C(O)C(O)C4O)C(O)CO)nn(-c4ccc(F)cc4)c3nc2cc1C (stereo unspecified)	> 100 µM	–	> 100	–	> 100 µM	> 100 µM	> 100 µM	–	> 100 µM	–	–	–	–	–	–	–	–	–	–	–
COC(=O)C1C(=O)NC2(C)CC1c1ccccc1O2 (stereo unspecified)	> 100 µM	> 100	> 100	> 100 µM	> 100 µM	> 100 µM	> 100 µM	> 100	> 100 µM	–	–	–	–	–	–	–	–	–	–	–
O=C(Cn1ccnc1[N+](=O)[O-])NCc1ccc(F)cc1	> 100 µM	> 100	–	> 100 µM	> 100 µM	> 100 µM	> 100 µM	> 100	> 100 µM	–	–	–	–	–	–	–	–	–	–	–
O=C1Cc2c([nH]c3ccccc23)-c2cc(Br)ccc2N1	> 100 µM	> 100	> 100	> 100 µM	> 100 µM	> 100 µM	> 100 µM	> 100	> 100 µM	–	–	–	–	–	–	–	–	–	–	–
CCOc1ccc(N=Nc2c(-c3ccccc3)nn(C(=O)CC(=O)Nc3ccccc3Cl)c2-c2ccccc2)cc1	–	> 100	> 100	> 100 µM	> 100 µM	> 100 µM	> 100 µM	> 100	> 100 µM	–	–	–	–	–	–	–	–	–	–	–
COc1cc2ccc(CC(=O)O)cc2cc1OC	> 100 µM	> 100	> 100	> 100 µM	> 100 µM	> 100 µM	–	> 100	> 100 µM	–	–	–	–	–	–	–	–	–	–	–
COc1cc([C@H]2c3cc4c(cc3[C@H](NCc3ccc(F)cc3)C3COC(=O)[C@H]32)OCO4)cc(OC)c1O (stereo partly specified)	8.02 µM	–	23.1	34 µM	15.1 µM	6.34 µM	17.9 µM	21.4	14.9 µM	–	–	–	–	–	–	–	–	–	–	–
CC[C@]1(O)C[C@@H]2CN(CCc3c([nH]c4ccccc34)[C@@](C(=O)OC)(c3cc4c(cc3OC)N(C)[C@H]3[C@@](O)(C(=O)OC)[C@H](OC(=O)CCCBr)[C@]5(CC)C=CCN6CC[C@]43[C@@H]65)C2)C1	< 0.0258 µM	> 100	> 32.4	> 100 µM	3.84 µM	> 100 µM	–	> 100	6.55 µM	14.3 µM	0.0141	< 0.0114	< 0.0166	< 0.01	0.0263	< 0.0163	–	< 0.0146	0.196	< 0.0204
CCOC(=O)c1cnc2c(ccc3ncccc32)c1OCC	> 100 µM	> 100	> 100	> 100 µM	> 100 µM	> 100 µM	–	> 100	> 100 µM	–	–	–	–	–	–	–	–	–	–	–
